Results as given in patent US8685726B2, “Small molecules supporting pluripotent cell growth and methods thereof” (Viacyte, Inc., priority 2009, dated 2014).
Entries after “also recorded” stand apart in the source; their conditions may differ.

Experiments:
CyT49 cells [1] = assay: Suspension aggregate culture, cell counts and aggregate diameters; format: cell-based, human; conditions: for serial passages maintained in suspension with undifferentiated morphology: suspension culture, 50 μM
Procedure: FIG. 10. Effects of NE and ACh in suspension culture of hES cell. (A) 5×10^6 CyT49 cells were seeded in 5 ml StemPro® hESC SFM containing heregulin, LR3-IGF1, Activin and the indicated neurotransmitters at 50 μM in low-attachment 6-well trays and placed at 100 rpm. Undifferentiated suspension aggregates were imaged on day 4. (B) 24 hours after seeding, two wells from each condition were harvested and counted to determine the number of viable cells. (C) Cell counts of each condition when the cultures were split on day 4. (D) The images in (A) were used to determine aggregate diameters using the ImagePro software measurement tool. Average diameters and standard deviations from 50-100 aggregates from each condition are shown. (E) Passage 1 cell counting data. 5×10^6 CyT49 hES cells from p0 cells in (A) were seeded into the same conditions. The aggregates in the condition containing Y27632 were larger and had to be passaged 3 days after seeding, before the centers of the largest aggregates became necrotic. Conversely, the other conditions could be cultured for 6 days before passaging, resulting in higher cell counts.
(§1) FIG. 11. Suspension hES cell cultured with NE, […] remain undifferentiated. CyT49 cells were grown as suspension aggregates in the presence of NE, […] for 16 passages without differentiating morphologically. After p10, some cells were re-plated to adherent culture and examined by karyotyping and immunofluorescent staining for OCT4 and Tra-1-61. All cultures remained undifferentiated and expressed these pluripotency markers uniformly. (SP) StemPro® SFM HIA, NE (+NE at 50 μM), ACh (+ACh at 50 μM), NE/ACh (+NE/ACh at 50 μM). Karyotype data is shown to the right. […] Cultures containing ACh were aneuploid.
Small molecule ligands that support survival or self-renewal at low cell densities could also be expected to have beneficial effects in other culture formats. Applicants have previously developed a suspension culture system for hES cells that enables serial propagation of cells and effective expansion of cultures. Human ES cells, at least BG02 and CyT49 cells, have been maintained in suspension for greater than 10 passages without differentiation. The basis of the technique is to dissociate cultures to single cells with reagents that preserve high viability, such as Accutase™, TrypLE or cell dispersal buffer, then aggregate defined concentrations of cells in defined medium in rotational culture. These methods are described in more detail in International Application PCT/US2008/082356, entitled STEM CELL AGGREGATE SUSPENSION COMPOSITIONS AND METHODS OF DIFFERENTIATION THEREOF, filed Nov. 4, 2008; and International Application PCT/US2007/062755, entitled COMPOSITIONS AND METHODS FOR CULTURING DI[…], filed Feb. 23, 2007, which are herein incorporated by reference in their entireties. Self-aggregation of hES cells occurs in the absence of added extracellular matrix (ECM) or ECM-like proteins and is presumed to be driven in part by homotypic interaction of E-cadherin. The aggregates that are formed expand over 3-4 days and are kept apart from each other by the shear forces generated by rotational culture. Cells are blocked from differentiating by the self-renewal signaling provided by the defined medium and retain their pluripotent characteristics: marker expression, normal karyotype, and differentiation potential in vitro and in teratomas. […]

CyT49 cells [2] = assay: Karyotyping (G-banding) of replated suspension cultures after 10 passages; format: cell-based, human; conditions: after 10 passages in suspension, G-banded
Procedure: as §1
To examine these possibilities, these cultures were serially passaged to p1 (FIG. 10E). Because Y27632 treated aggregates were of a larger size, they required passaging after only 3 days, and only generated about 1.2×10^7 cells during that period. In contrast, the cultures containing NE, ACh or NE/ACh were cultured for 6 days and generated greater than 2×10^7 cells per well. Suspension cultures containing NE, ACh or NE/ACh were maintained for 12 serial passages, in parallel with a HAIF control culture, and all conditions maintained an undifferentiated morphology throughout. Suspension aggregates were dissociated to single cells after 10 passages and replated to adherent culture for analyses. […] Replated cultures were also G-banded to determine their karyotype.

Compound | serial passages maintained in suspension with undifferentiated morphology (CyT49 cells [1]) | aggregate size on day 4 (CyT49 cells [1]; suspension, StemPro hESC SFM HIA, neurotransmitters 50 μM) | karyotype (CyT49 cells [2])
NCC(O)c1ccc(O)c(O)c1 (racemic) [NE, (±)-Norepinephrine (+)-bitartrate] | 12 serial passages | smaller aggregates | 
CC(=O)OCC[N+](C)(C)C [ACh, acetylcholine] | 12 serial passages |  | aneuploid or abnormal; also recorded: aneuploid
